From US20240246967A1, “AXL COMPOUNDS” (ARCUS BIOSCIENCES, INC., priority 2021, published 2024)
pIC50: −log10 of the molar value.

Assays:
[1] = biological target: T1, Axl (Homo sapiens, UniProt P30530); assay: Axl NanoBRET intracellular kinase assay (intracellular binding, Cell Binding); set-up: host or cells: HEK-293; details: HEK-293 cells transfected with Axl-NanoLuc fusion vector; 0.35 μM K-5 NanoBRET tracer
T1 sequence (P30530 26-894): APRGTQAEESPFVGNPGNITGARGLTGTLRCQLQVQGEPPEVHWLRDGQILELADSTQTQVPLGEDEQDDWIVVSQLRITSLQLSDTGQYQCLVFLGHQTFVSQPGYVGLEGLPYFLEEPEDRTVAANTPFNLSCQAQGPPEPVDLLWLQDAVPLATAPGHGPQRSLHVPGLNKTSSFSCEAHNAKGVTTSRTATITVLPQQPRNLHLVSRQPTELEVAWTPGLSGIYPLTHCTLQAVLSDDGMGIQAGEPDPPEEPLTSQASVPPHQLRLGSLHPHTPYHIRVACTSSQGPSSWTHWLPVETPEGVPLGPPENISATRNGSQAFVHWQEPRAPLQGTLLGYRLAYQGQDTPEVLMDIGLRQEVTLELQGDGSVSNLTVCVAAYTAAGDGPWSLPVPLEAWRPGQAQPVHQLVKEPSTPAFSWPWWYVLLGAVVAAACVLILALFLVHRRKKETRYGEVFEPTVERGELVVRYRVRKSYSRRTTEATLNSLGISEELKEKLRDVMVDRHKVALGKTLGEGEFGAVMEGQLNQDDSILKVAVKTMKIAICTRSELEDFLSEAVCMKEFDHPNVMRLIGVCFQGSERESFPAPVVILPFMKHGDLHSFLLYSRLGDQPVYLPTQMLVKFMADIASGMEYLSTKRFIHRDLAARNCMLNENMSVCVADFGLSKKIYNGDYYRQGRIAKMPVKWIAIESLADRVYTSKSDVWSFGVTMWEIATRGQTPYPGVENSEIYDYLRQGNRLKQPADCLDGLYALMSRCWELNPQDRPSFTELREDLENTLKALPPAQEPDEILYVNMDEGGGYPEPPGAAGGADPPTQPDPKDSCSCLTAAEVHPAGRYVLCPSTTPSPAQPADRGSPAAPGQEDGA
Outline: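 Intracellular binding measured as loss of BRET (610 nm/450 nm) when compounds displace 0.35 μM K-5 tracer from Axl-NanoLuc in transfected HEK-293 cells.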

[2] = biological target: T1, Axl; assay: HTRF KinEASE-TK biochemical potency assay, AXL; set-up: purchased Invitrogen; details: 5 nM AXL, 700 μM ATP, 800 nM TK Substrate-biotin
Outline: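 Recombinant human kinase preincubated 1 h at RT with compound, then reacted 2 h at RT with 800 nM biotin-TK substrate and 700 μM ATP (final; 5 nM AXL, 1 nM TYRO3 or MER) in HEPES pH 7.4, MgCl2, BSA, DTT, 1% DMSO. HTRF 665/620 ratio read; percent activity versus DMSO and pre-quenched controls.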

| pIC50 [1] | pIC50 [2] | Compound |
| --- | --- | --- |
| > 7.00 | > 7.00 | Cc1cc(-c2n[nH]c3ncc(-c4ccc5c(c4)CC[C@@H](N4CCCC4)CC5)cc23)cc(F)c1C(N)=O [Example 83, (S)-2-Fluoro-6-methyl-4-(5-(7-(pyrrolidin-1-yl)-6,7,8,9-tetrahydro-5H-benzo[7]annulen-2-yl)-1H-pyrazolo[3,4-b]pyridin-3-yl)benzamide] |
| > 7.00 | > 7.00 | NC(=O)c1ccc(-c2n[nH]c3ncc(-c4ccc5c(c4)CC[C@@H](N4CCCC4)CC5)cc23)cc1Cl [Example 84, (S)-2-Chloro-4-(5-(7-(pyrrolidin-1-yl)-6,7,8,9-tetrahydro-5H-benzo[7]annulen-2-yl)-1H-pyrazolo[3,4-b]pyridin-3-yl)benzamide] |
| > 7.00 | > 7.00 | O=C(c1ccc(-c2n[nH]c3ncc(-c4ccc5c(c4)CC[C@@H](N4CCCC4)CC5)cc23)cc1Cl)N1CCC(O)CC1 [Example 85, (S)-(2-Chloro-4-(5-(7-(pyrrolidin-1-yl)-6,7,8,9-tetrahydro-5H-benzo[7]annulen-2-yl)-1H-pyrazolo[3,4-b]pyridin-3-yl)phenyl)(4-hydroxypiperidin-1-yl)methanone] |
| > 7.00 | > 7.00 | NS(=O)(=O)c1ccc(-c2n[nH]c3ncc(-c4ccc5c(c4)CC[C@@H](N4CCCC4)CC5)cc23)cc1Cl [Example 91, (S)-2-Chloro-4-(5-(7-(pyrrolidin-1-yl)-6,7,8,9-tetrahydro-5H-benzo[7]annulen-2-yl)-1H-pyrazolo[3,4-b]pyridin-3-yl)benzenesulfonamide] |
| > 7.00 | > 7.00 | C[C@@H]1CCCN1C1(C)CCc2ccc(-c3cnc4[nH]nc(-c5ccc(S(N)(=O)=O)c(Cl)c5)c4c3)cc2CC1 (stereo partly drawn) [Example 93, 2-Chloro-4-(5-(7-methyl-7-((R)-2-methylpyrrolidin-1-yl)-6,7,8,9-tetrahydro-5H-benzo[7]annulen-2-yl)-1H-pyrazolo[3,4-b]pyridin-3-yl)benzenesulfonamide] |

Further lines, the compound ahead of its results:

| Compound | pIC50 [1] | pIC50 [2] |
| --- | --- | --- |
| O=C(c1ccc(-c2n[nH]c3ncc(-c4ccc5c(c4)CC[C@@H](N4CCCC4)CC5)cc23)cc1Cl)N1CCNCC1 [Example 82, (S)-(2-Chloro-4-(5-(7-(pyrrolidin-1-yl)-6,7,8,9-tetrahydro-5H-benzo[7]annulen-2-yl)-1H-pyrazolo[3,4-b]pyridin-3-yl)phenyl)(piperazin-1-yl)methanone] | > 7.00 | > 7.00 |
| COc1cc(-c2n[nH]c3ncc(-c4ccc5c(c4)CCC(C)(N4CCC[C@H]4C)CC5)cc23)ccc1S(N)(=O)=O (stereo partly drawn) [Example 87, 2-Methoxy-4-(5-(7-methyl-7-((R)-2-methylpyrrolidin-1-yl)-6,7,8,9-tetrahydro-5H-benzo[7]annulen-2-yl)-1H-pyrazolo[3,4-b]pyridin-3-yl)benzenesulfonamide] | 6.00 to 7.00 | > 7.00 |
| C[C@@H]1CCCN1C1(C)CCc2ccc(-c3cnc4[nH]nc(-c5ccc(C(=O)NC6CCOCC6)cc5)c4c3)cc2CC1 (stereo partly drawn) [Example 88, 4-(5-(7-Methyl-7-((R)-2-methylpyrrolidin-1-yl)-6,7,8,9-tetrahydro-5H-benzo[7]annulen-2-yl)-1H-pyrazolo[3,4-b]pyridin-3-yl)-N-(tetrahydro-2H-pyran-4-yl)benzamide] | > 7.00 | > 7.00 |
| COC1CCN(C(=O)c2ccc(-c3n[nH]c4ncc(-c5ccc6c(c5)CCC(C)(N5CCC[C@H]5C)CC6)cc34)cc2)CC1 (stereo partly drawn) [Example 89, (4-Methoxypiperidin-1-yl)(4-(5-(7-methyl-7-((R)-2-methylpyrrolidin-1-yl)-6,7,8,9-tetrahydro-5H-benzo[7]annulen-2-yl)-1H-pyrazolo[3,4-b]pyridin-3-yl)phenyl)methanone] | > 7.00 | > 7.00 |
| Cc1cc2c(cc1-c1cnc3[nH]nc(-c4ccc(C(C)(C)O)c(Cl)c4)c3c1)CCC(N1CCC[C@H]1C)CC2 (stereo partly drawn) [Example 90, 2-[2-Chloro-4-(5-{3-methyl-7-[(2R)-2-methylpyrrolidin-1-yl]-6,7,8,9-tetrahydro-5H-benzo[7]annulen-2-yl}-1H-pyrazolo[3,4-b]pyridin-3-yl)phenyl]propan-2-ol] | 6.00 to 7.00 | > 7.00 |
| NS(=O)(=O)c1ccc(-c2n[nH]c3ncc(-c4ccc5c(c4)CCN(C4CCCC4)CC5)cc23)cc1Cl [Example 92, 2-Chloro-4-(5-(3-cyclopentyl-2,3,4,5-tetrahydro-1H-benzo[d]azepin-7-yl)-1H-pyrazolo[3,4-b]pyridin-3-yl)benzenesulfonamide] | 6.00 to 7.00 | > 7.00 |
